Assay results from patent US11045519B2, “Arginine-rich polypeptide compositions and methods of using same” (UNM Rainforest Innovations, priority 2017, dated 2021).
Where a SMILES comes first, the peptide text is derived from it. Where no end group is shown, it is not given here. The star is where a group is joined. Decanoyl = CCCCCCCCCC(=O)*; CH2Cl = ClC*

Assays:
[1] = target: T1, recombinant His-furin (Homo sapiens, UniProt P09958); test: Furin cleavage of HPV16 L2 capsid protein (immunoblot); type: biochemical; conditions: 30 μM, 3 nM His-furin, 2 h 37° C.
T1 construct: His
Method: FIG. 9. PolyR inhibits HPV16 L2 protein cleavage by furin and induces accumulation of internalized virus particles in late endosomal fraction. (A) Equal amount of HPV16 diluted in 50 μl furin assay buffer (1 mM CaCl2), 100 mM HEPES, 0.5% Triton X-100, 1 mM β-mercaptoethanol) was loaded into six tubes, […], in the presence of 1.3 μM furin inhibitor1 (Merck Millipore Corp., Burlington, Mass.), or 1 μM polyR. Samples were mixed with SDS-PAGE sample buffer and boiled before fractionation on 9% gel. Proteins were transferred onto PVDF membranes and after blocking, incubated with affinity-purified rabbit anti-HPV16 polyclonal antibody. Secondary donkey anti-rabbit horseradish peroxidase-coupled antibody was used for detection of HPV16 capsid proteins. (B) HaCaT cells grown on coverslips were incubated with HPV16 PsVs for one hour at 37° C. to initiate virus binding (and partial internalization) before adding 1 μM polyR and further incubated for seven hours. […]
Cleavage of the L2 minor capsid protein by the cellular pro-protein convertase, furin, is an essential step in infectious entry of HPVs. […] After two hours of incubation, HPV16 cleavage was assessed by immunoblotting using anti-HPV 16 polyclonal antibody. […]

[2] = tested on: HPV16 pseudovirions (PsVs); test: HPV16 PsV luciferase infectivity assay, HaCaT cells pretreated with peptide; type: cell-based; conditions: 24 h; for inhibition of HPV16 PsV infection: 6 μM, 30 min pretreatment of HaCaT cells, 300 vge/cell
Method: HaCaT cells were cultured in complete growing medium (CM; Dulbecco's modified Eagle's medium nutrient mixture F-12 HAM (Sigma-Aldrich, St. Louis, Mo.)) supplemented with 10% fetal bovine serum (FBS), amino acids (Sigma-Aldrich, St. Louis, Mo.), 2 mM L-glutamine, 100 U/ml penicillin and 1 μg/ml streptomycin (Sigma-Aldrich, St. Louis, Mo.), as previously described (Patterson et al., 2005. J Virol 79:6838-6847). Semi-confluent cells were pretreated for 30 minutes with arginine-rich peptides dissolved in CM (6 μM gp91dstat, gp91dstat (scramble), R9, and TAT, or 3 polyR) before the exposure to HaCaT cells and 300 vge/cell HPV16 pseudovirions (PsVs) packaging a luciferase reporter plasmid. Infectivity was scored after 24 hours of incubation at 37° C. (i.e., post infection) by Lumat LB9501 (Berthold Technologies GmbH & Co KG, Bad Wildbad, Germany) equipment, using the luciferase assay kit (Promega, Madison, Wis.) according to manufacturer's specification. Raw data were normalized to total cellular protein concentration. Graph summarizes triplicate treatments; error bars represent SEM.
Fifty percent inhibitory concentration (IC50) of HPV16 PsV infection of HaCaT cells by the compounds. For generation of an inhibitory concentration 50 (IC50) curves, cells were pretreated with the indicated concentration of arginine-rich peptides prior to HPV16 PsV exposure. Infectivity was scored after 24 hours of incubation at 37° C. and the data from two independent duplicate experiments were pooled and analyzed using non-linear regression (curve fit) function of PRISM software (GraphPad Software, Inc., LaJolla, Calif.).
Semi-confluent HaCaT cells maintained in CM, were pretreated for one hour with PrS dissolved in CM at the 0-5.8 μM concentrations before exposure to HPV16 PsVs (350 vge/cell). Infectivity was scored after 24 hours of incubation at 37° C. using a luminometer (Lumat LB9501, Berthold GmbH & Co., Bad Wildbad, Germany) and luciferase assay (Promega, Madison, Wis.) according to manufacturer's specification. Raw data were normalized to total cellular protein concentration.
For generation of an inhibitory concentration 50 (IC50) curve for PrS inhibition, data from two independent duplicate experiments was pooled and analyzed using the non-linear regression (curve fit) function of PRISM (GraphPad Software, Inc., La Jolla, Calif.).
3 μM PrS incubated for one hour at room temperature with 2 mg/ml high or low molecular weight HA in CM, prior to the addition to HaCaT cells. 350 vge/cell HPV16 PsVs were used for infection of cells in the presence or absence of PrS or HA:PrS complex. Infection was scored after 24 hours as described in FIG. 12.
HaCaT cells were pretreated with 6 μM concentrations of gp91dstat, gp91dstat (scramble), R9, or TAT, or 3 μM polyR. After 30 minutes of incubation at 37° C., cells were infected with HPV16 pseudovirions (PsVs) at a dose of 300 viral genome equivalents (vge)/cell, and the relative infectivity was quantified after 24 hours compared to infection in untreated cells (FIG. 1). Each treatment was performed in triplicate.
To evaluate the anti-HPV activity of PrS, HaCaT cells, a keratinocyte-derived cell line, was used as a model for analysis of HPV infection. […]
Infections were initiated using Luciferase-expressing HPV16 PsVs that were produced, isolated, and quantified as described previously (Surviladze et al., 2012. PLoS Pathogens 8: e1002519; Campos S K and Ozbun M A, 2009. PloS One 4:e4463). […]

[3] = tested on: HPV16 PsVs; test: Dissociation of cell-bound HPV16 PsVs from HaCaT cells (L1 immunoblot); type: cell-based; conditions: 5 μM added to HPV-bound HaCaT cells, 1 h 4° C.
Method: (§1) (A) HPV16 PsVs were bound to HaCaT cells (one hour at 4° C.), before the addition of […]. After a one-hour incubation at 4° C., unbound virus was washed out, cells were lysed and analyzed for the content of HPV L1 protein. (B) HaCaT cells were exposed to HPV 16 PsV at 4° C. in the absence of polyR, simultaneously with polyR (0 h), or one hour after polyR treatment (+1 h). After extensive washing with PBS, cells were lysed and analyzed for the content of HPV16 L1 protein.
FIG. 19. […] HPV16 PsVs were bound to HaCaT cells (one hour in cold), before the addition of 5 μM PrS. After a one-hour incubation at 4° C., unbound virus was washed out, cells were lysed, and HPV L1 protein content was measured as described in FIG. 16.
To determine whether polyR could cause HPV16 dissociation from cells, HPV16 PsVs were bound to HaCaT cells for one hour at 4° C. After washing away unbound virus, HPV-bound cells were incubated with 3 μM polyR for one hour at 4° C.; control cells were untreated. Cells were lysed and analyzed for HPV L1 protein content. […]
The post-attachment inhibitory effects of PrS could be due the displacement of capsids from the cell surface. […] After a one-hour incubation at 4° C., unbound virus was washed out, cells were lysed, and the HPV L1 protein content was analyzed.

[4] = tested on: HPV16 PsVs; test: Direct pre-incubation of HPV16 PsVs with peptide, dilution below IC50, then infection of HaCaT cells; type: cell-based; conditions: 1 μM, 1 h 37° C., diluted below IC50, HaCaT cells 24 h
Method: FIG. 3. […] HPV16 PsVs were incubated with 0.3 μM polyR for one hour at 37° C. The virus-polyR mixture was diluted with CM to reduce the polyR concentration below the IC50 value prior to incubation with HaCaT cells for 24 hours (HPV16-polyR). The control included untreated HPV16 PsVs (HPV16) added to HaCaT cells. Infection was measured after 24-hour incubation.
FIG. 15. Direct interaction of PrS to HPV16 PsVs. HPV16 PsVs were incubated with 1 μM PrS or HA:PrS complex for one hour at 37° C. Virus-PrS/or HA:PrS mixture was diluted with CM in order to reduce the PrS concentration below the IC50 value, and incubated with HaCaT cells for 24 hours. The control included untreated HPV16 PsVs. Infection was measured after 24 hours incubation as described in FIG. 12.
Typically, direct interaction of cationic inhibitors with the viral capsids of non-enveloped viruses (including HPV) is sufficient for antiviral activity. To determine whether polyR inhibited HPV16 infectivity by direct interaction with viral capsids, HPV16 PsVs were incubated with […] for one hour at 37° C. The virus-polyR mixture was diluted 1500-fold to reduce the polyR concentration below the IC50 value, then incubated with HaCaT cells. The control included cells exposed to HPV PsVs that were not treated with polyR. […]

[5] = tested on: HPV16 PsVs; test: HPV16 PsV binding to HaCaT cells at 4° C. (L1 immunoblot / immunofluorescence); type: cell-based; conditions: 4° C. 1 h
Method: FIG. 4. PolyR treatment of host cells inhibits HPV16 binding to cells. (A) Confluent HaCaT cell monolayers were treated with 1 μM polyR (in CM) for 30 minutes, before adding 100 vge/cell HPV16 PsVs, and incubated at 4° C. for one hour (to promote binding but prevent virus internalization). After washing out of unbound virus, cells were lysed (25 mM Tris pH7.5, 150 mM NaCl, 1% Triton-X100 supplemented with protease inhibitors) and centrifuged at 16,000×g for 10 minutes. Protein concentrations in supernatant were measured using the Bradford method (Bio-Rad Laboratories, Inc., Hercules, Calif.). Samples were boiled in SDS-containing sample buffer, and aliquots containing equal amount of protein ([…] to 200 μg) separated by SDS-polyacrylamide gel electrophoresis (SDS-PAGE), using 10% gel. Proteins were transferred onto polyvinylidene difluoride (PVDF) membranes and subjected to analysis using anti-HPV16 L1 primary antibody (Camvir-1, sc-47699, Santa Cruz Biotechnology, Inc., Dallas, Tex.;1:5000 dilution) for detection of HPV16 major capsid protein, L1. Proteins were visualized by enhanced chemiluminescence (SUPERSIGNAL West Pico Chemiluminescent Substrate, Thermo Fisher Scientific, Inc., Waltham, Mass.) and exposed to film (Phenix Research Products, Candler, N.C.). (B) Immunofluorescence assays were performed essentially as described previously (Surviladze et al., 2012. PLoS Pathogens 8:e1002519). HaCaT cells were grown on coverslips at approximately 50% confluence and treated with 3 μM polyR for 30 minutes at 37° C. before the addition of 1000 vge of HPV16 PsVs per coverslip. Cells were incubated for one hour at 4° C. and washed several times with PBS, before the fixation with 4% paraformaldehyde (PFA). BSA-blocked cells were incubated with rabbit polyclonal HPV16 antibody (antibody was affinity-purified from rabbit anti-HPV VLP antisera). PBS-washed slides were incubated with donkey AF488-conjugated anti-rabbit IgG secondary antibody; phalloidin-rhodamine (Cytoskeleton, Inc., Denver, Colo.) was used for actin staining. After extensive washing with PBS, cells were mounted in Gold Antifade and immunofluorescent (IF) images were captured by confocal photo-microscopy.
as §1
FIG. 16. PrS pretreated cells binding of HPV16. Confluent HaCaT cell monolayers were treated with 1 μM PrS (in CM) before the addition of 200 vge/cell HPV16 PsVs and incubated at 4° C. for one hour (conditions to prevent virus internalization). After washing out of unbound virus, cells were lysed (25 mM Tris pH7.5, 150 mM NaCl, 1% Triton-X100 supplemented with protease inhibitors) and centrifuged at 16,000×g for 10 minutes. Protein concentrations in supernatant were measured using the Bradford method (Bio-Rad Laboratories, Inc., Hercules, Calif.). Samples were boiled in SDS-containing sample buffer, and aliquots containing equal amount of protein (˜50 μg to 200 μg) separated by SDS-polyacrylamide gel electrophoresis (SDS-PAGE) using 10% gel. […]

T1 sequence (P09958 108-794): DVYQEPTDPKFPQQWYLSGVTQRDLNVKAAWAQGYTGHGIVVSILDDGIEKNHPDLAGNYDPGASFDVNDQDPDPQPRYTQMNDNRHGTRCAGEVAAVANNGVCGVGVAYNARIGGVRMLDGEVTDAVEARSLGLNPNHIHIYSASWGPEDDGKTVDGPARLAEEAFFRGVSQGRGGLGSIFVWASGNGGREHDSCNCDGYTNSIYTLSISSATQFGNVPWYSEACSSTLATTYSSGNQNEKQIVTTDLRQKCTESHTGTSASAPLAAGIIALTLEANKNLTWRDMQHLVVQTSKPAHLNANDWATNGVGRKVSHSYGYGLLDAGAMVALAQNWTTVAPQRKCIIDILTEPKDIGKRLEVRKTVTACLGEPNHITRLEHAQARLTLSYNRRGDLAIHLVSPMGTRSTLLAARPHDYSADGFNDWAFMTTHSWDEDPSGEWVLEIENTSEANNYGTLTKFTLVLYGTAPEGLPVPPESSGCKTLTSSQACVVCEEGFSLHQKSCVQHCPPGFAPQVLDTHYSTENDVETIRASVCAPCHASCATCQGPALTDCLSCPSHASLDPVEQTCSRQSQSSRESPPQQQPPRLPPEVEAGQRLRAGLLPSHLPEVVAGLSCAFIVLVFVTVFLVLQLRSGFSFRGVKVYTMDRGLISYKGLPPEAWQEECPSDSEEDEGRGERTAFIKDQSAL

Q: For CCCCCCCCCC(=O)N[C@@H](CCCN=C(N)N)C(=O)N[C@H](C(=O)N[C@@H](CCCCN)C(=O)N[C@@H](CCCN=C(N)N)C(=O)CCl)C(C)C [FI, reference compound] (Decanoyl-RVKR-CH2Cl), which “furin cleavage of L2 capsid protein” value [1] is on record?
A: inhibited cleavage of the L2 capsid protein

Q: With N=C(N)NCCC[C@H](NC(=O)[C@H](CCCNC(=N)N)NC(=O)[C@H](CCCNC(=N)N)NC(=O)[C@H](CCCNC(=N)N)NC(=O)[C@H](CCCNC(=N)N)NC(=O)[C@H](CCCNC(=N)N)NC(=O)[C@H](CCCNC(=N)N)NC(=O)[C@H](CCCNC(=N)N)NC(=O)[C@@H](N)CCCNC(=N)N)C(=O)O [R9, arginine nonapeptide] as the compound, how does the “inhibition of HPV16 PsV infection” value [2] read?
A: 66%

Q: Which “inhibition of HPV16 PsV infection” value [2] does the source give for “TAT: YGRKKRRQRRR; arginine-rich fragment of the HIV transactivator protein” here?
A: 44%

Q: For “protamine sulfate (MPRRRRSSSRPVRRRRRPRVSRRRRRRGGRRRR; also: sulfate salt; listed as Oncorhynchus keta) [PrS, sulfate form of salmon protamine, FDA approved arginine-rich polypeptide, reference compound]”, which “release of HPV16 from membrane” value [3] is on record?
A: did not induce HPV16 release from membrane

Q: What about the “effect of pre-incubation of HPV16 PsVs on infection” value [4] of the same compound?
A: does not inhibit infection

Q: What about the “HPV16 binding to pretreated cells (L1 Western blot)” value ([5]; 1 μM in CM, 200 vge/cell) of the same compound?
A: almost completely blocked HPV16 binding

Q: And the “inhibition of HPV16 binding at acidic conditions” value ([5]; pH 4.5, 2 μM PrS (complex: 0.1% HMW HA:2 μM PrS))?
A: 60%

Q: And the IC50 ([2]; 1 h pretreatment, 350 vge/cell, read-out: IC50 of HPV16 infection in HaCaT cells)?
A: ~100 nM
